Measurements taken from patent publication US5661148A, “Pyrrolo[2,3-d]pyrimidine derivatives, process for producing the same and pharmaceutical preparation comprising the same as active ingredient” (Teijin Limited, priority 1989, dated 1997).

Tests used:
hypoxemia model animals [1] = test: Effect on partial pressure value of gases in arterial blood, injection system, Method B (acetic acid induced respiratory insufficiency); type: in vivo, rat (Male Wister strain); conditions: continuous i.v. 0.1 mg/kg/min., 10 min.; for Activity for Decreasing PaCO2: increment PaCO2: PaCO2 after minus before administration; for Activity for Increasing PaO2: increment PaO2: PaO2 after minus before administration
Experimental: Effect on Partial Pressure Value of Gases in Arterial Blood (Injection system) <Method B> Male Wister strain rats (body about 300 g) were anesthetized with halothane inhalant, and then 2.0% acetic acid was […] injected at 0.6 ml/kg to induce a respiratory insufficiency. The animals were intra-peritoneally anesthetized with urethane-α-chloralose, and a cannula was inserted into the femoral artery. After the hypoxemic state (PaO2 : 60-70 mmHg) was observed a compound in accordance with the present invention (test substance) was continuously intravenously injected into these hypoxemia model animals (0.1 mg/kg/min., 10 min.), and then a partial pressure value of gases (PaO2, PaCO2) in arterial blood was immediately determined.

hypoxemia animals = test: Effect on partial pressure value of gases in arterial blood, oral administration system, Method B (3 days after acetic acid); type: in vivo, rat (Male wistar strain); conditions: 60 min. after administration
Experimental: Effect on Partial Pressure Value of Gases in Arterial Blood (Oral Administration System)
Male wistar strain rats (body weight about 350 g) were anesthetized with halothane inhalant, and then 2.0% acetic acid were intratrachealy injected at 0.6 ml/kg body to induce a hypoxemia state. In 3 days after injection with 2.0% acetic acid, rats fasted overnight were anesthetized with halothane inhalant, and a cannula inserted into the femoral artery. After these hypoxemia animals (PaO2 : 60-80 mmHg) were recovered from the anesthesia, a compound in accordance with the present invention (test substance, 10 or 30 mg/kg) was orally administered to the animals. At 60 min. after the administration, the partial pressure value of gases (PaO2, PaCO2) in arterial blood was determined.

hypoxemia state rats = test: Effect on partial pressure value of gases in arterial blood, oral administration system, Method A (acetic acid induced hypoxemia, about 60 min); type: in vivo, rat (Male Wistar strain); conditions: 60 min. after administration
Experimental: Effect on Partial Pressure Value of Gases in Arterial Blood (Oral Administration System) Method A Male Wistar strain rats (body weight about 250 g) fasted overnight were anesthetized with halothane inhalant, and a cannula then inserted into the femoral artery. After the animals recovered from the anesthesia, they were again anesthetized with halothane inhalant, and then 2.0% acetic acid was […] injected at 0.8 ml/kg to induce a hypoxemia state. After the hypoxemic state (PaO2 :60-80 mmHg) was observed over about 60 min., a compound in accordance with the present invention (test substance, 10 or 30 mg/kg) was orally administered to the animals. Then 60 min. after the administration, the partial pressure value of gases (PaO2, PaCO2) in arterial blood was determined.

hypoxemia model animals [2] = test: Effect on partial pressure value of gases in arterial blood, injection system, Method A (carbon powder induced hypoxemia); type: in vivo, rat (Male Wister strain); conditions: continuous i.v. 0.1 mg/kg/min., 10 min.; for Activity for Decreasing PaCO2: increment PaCO2: PaCO2 after minus before administration; for Activity for Increasing PaO2: increment PaO2: PaO2 after minus before administration
Experimental: Effect on Partial Pressure Value of Gases in Arterial Blood (Injection system)
Male Wister strain rats (body weight about 300 g) were anesthetized intra-peritoneally with urethane, and a cannula was inserted into the respiratory tract and the femoral artery, respectively. A suspension (30-100 μm, 10 mg/ml) of carbon powder in a corn oil was intratrachealy injected to induce a hypoxemia state (PaO2; 50-60 mmHg). A compound in accordance with the present invention was continuously intravenously injected into these hypoxemia model animals (0.1 mg/kg/min., 10 min.), and then a partial pressure value of gases (PaO2, PaCO2) in arterial blood was immediately determined.

| SMILES | Activity for Decreasing PaCO2: increment PaCO2 (hypoxemia model animals [1]) | Activity for Increasing PaO2: increment PaO2 (hypoxemia model animals [1]) | also measured |
| --- | --- | --- | --- |
| C=CCNc1nc(N2C(C)CCCC2C)c2ccn(C)c2n1 (stereo not drawn) [Compound 183] | -4.6 mmHg | +10.7 mmHg |  |
| C=CCNc1nc(N(C)CCc2ccccc2)c2ccn(C)c2n1 [Compound 167] | -6.6 mmHg |  |  |
| C=CCNc1nc(N[C@H]2CC[C@H](OCCOCC)CC2)c2ccn(C)c2n1 [Compound 187] | -14.7 mmHg | +13.7 mmHg | Activity for Decreasing PaCO2: increment PaCO2 (hypoxemia animals; 10 mg/kg): +6.9 mmHg; Activity for Increasing PaO2: increment PaO2 (hypoxemia animals; 10 mg/kg): +16.0 mmHg |
| C=CCNc1nc(NCC2CCCO2)c2ccn(C)c2n1 (stereo not drawn) [Compound 179] | +2.4 mmHg | +8.5 mmHg |  |
| C=CCNc1nc(NC(COC)COC)c2ccn(C)c2n1 [Compound 184] | -0.7 mmHg | +7.8 mmHg |  |
| C=CCNc1nc(NC(C)(C)C)c2ccn(C)c2n1 [Compound 178] | -16.4 mmHg | +16.4 mmHg | Activity for Decreasing PaCO2: increment PaCO2 (hypoxemia animals; 10 mg/kg): -6.6 mmHg; Activity for Increasing PaO2: increment PaO2 (hypoxemia animals; 10 mg/kg): +17.0 mmHg |
| C=CCNc1nc(N(CCOCC)CCOCC)c2ccn(C)c2n1 [Compound 181] | +1.2 mmHg | +6.4 mmHg |  |
| C=CCNc1nc(NCc2ccco2)c2ccn(C)c2n1 [Compound 172] | -2.8 mmHg | +12.3 mmHg |  |
| C=CCNc1nc(N(C)C)c2ccn(C)c2n1 [Compound 165] | +1.1 mmHg | +7.9 mmHg | Activity for Decreasing PaCO2: increment PaCO2 (hypoxemia state rats; 30 mg/kg): -3.4 mmHg; Activity for Increasing PaO2: increment PaO2 (hypoxemia state rats; 30 mg/kg): +8.5 mmHg |
| C=CCNc1nc(N2CCC(OC)CC2)c2ccn(C)c2n1 [Compound 180] | -0.5 mmHg | +6.5 mmHg |  |
| C=CCNc1nc(NCCCc2ccco2)c2ccn(C)c2n1 [Compound 173] | -13.1 mmHg | +12.0 mmHg | Activity for Decreasing PaCO2: increment PaCO2 (hypoxemia state rats; 10 mg/kg): -3.7 mmHg; Activity for Increasing PaO2: increment PaO2 (hypoxemia state rats; 10 mg/kg): +4.2 mmHg |
| C=CCNc1nc(NC(C)c2ccccc2)c2ccn(C)c2n1.Cl (racemic) [Compound 156, (±)-2-allylamino-7-methyl-4-(1-phenylethylamino)-7H-pyrrolo[2,3-d]pyrimidine hydrochloride] | -9.1 mmHg |  | Activity for Decreasing PaCO2: increment PaCO2 (hypoxemia state rats; 30 mg/kg): -8.1 mmHg; Activity for Increasing PaO2: increment PaO2 (hypoxemia state rats; 30 mg/kg): +7.8 mmHg |
| C=CCNc1nc(N2CCOCC2)c2ccn(C)c2n1 [Compound 124] | -4.0 mmHg | +5.7 mmHg | Activity for Decreasing PaCO2: increment PaCO2 (hypoxemia animals; 30 mg/kg): -2.5 mmHg; Activity for Increasing PaO2: increment PaO2 (hypoxemia animals; 30 mg/kg): +8.0 mmHg |
| C=CCNc1nc(N[C@H]2CC[C@H](OC)CC2)c2ccn(C)c2n1 [Compound 186] | -15.4 mmHg | +12.3 mmHg | Activity for Decreasing PaCO2: increment PaCO2 (hypoxemia animals; 10 mg/kg): -5.3 mmHg; Activity for Increasing PaO2: increment PaO2 (hypoxemia animals; 10 mg/kg): +14.9 mmHg |
| C=CCNc1nc(NC(C)C)c2ccn(C)c2n1 [Compound 176] | -14.8 mmHg | +22.2 mmHg | Activity for Decreasing PaCO2: increment PaCO2 (hypoxemia animals; 10 mg/kg): -5.4 mmHg; Activity for Increasing PaO2: increment PaO2 (hypoxemia animals; 10 mg/kg): +11.6 mmHg |
| C=CCNc1nc(N2CCN(C(c3ccc(F)cc3)c3ccc(F)cc3)CC2)c2ccn(CC=C)c2n1 [Compound 143] |  |  | Activity for Decreasing PaCO2: increment PaCO2 (hypoxemia model animals [2]): +1.1 mmHg; Activity for Increasing PaO2: increment PaO2 (hypoxemia model animals [2]): +5.0 mmHg |
| C=CCNc1nc(N(C)[C@H]2CC[C@H](OC)CC2)c2ccn(C)c2n1 [Compound 189] | -6.0 mmHg | +7.3 mmHg |  |
| C=CCNc1nc(N2CCN(C(c3ccc(F)cc3)c3ccc(F)cc3)CC2)c2ccn(C)c2n1 [Compound 133] |  |  | Activity for Decreasing PaCO2: increment PaCO2 (hypoxemia model animals [2]): -0.6 mmHg; Activity for Increasing PaO2: increment PaO2 (hypoxemia model animals [2]): +6.9 mmHg |
| C=CCNc1nc(N[C@H]2CC[C@@H](OC)CC2)c2ccn(C)c2n1 [Compound 185] | -6.0 mmHg | +11.7 mmHg |  |
| C=CCNc1nc(N2CCCCC2C)c2ccn(C)c2n1 (stereo not drawn) [Compound 182] |  |  | Activity for Decreasing PaCO2: increment PaCO2 (hypoxemia animals; 30 mg/kg): -2.2 mmHg; Activity for Increasing PaO2: increment PaO2 (hypoxemia animals; 30 mg/kg): +3.3 mmHg |
| C=CCNc1nc(NCc2cccs2)c2ccn(C)c2n1 [Compound 174] | -2.9 mmHg | +5.8 mmHg |  |
| C=CCNc1nc(N2CCC(OC(C)=O)CC2)c2ccn(C)c2n1 [Compound 119] |  |  | Activity for Decreasing PaCO2: increment PaCO2 (hypoxemia model animals [2]): -2.6 mmHg; Activity for Increasing PaO2: increment PaO2 (hypoxemia model animals [2]): +7.1 mmHg |
| C=CCNc1nc(NCCc2ccc(OC)cc2)c2ccn(C)c2n1 [Compound 175] | -13.1 mmHg | +15.2 mmHg |  |
